{"source": "patent US12329738B2", "about": "“Urolithin A and a composition containing same for external use in inflammations of various etiologies” (WARSZAWSKI UNIWERSYTET MEDYCZNY, priority 2018, dated 2025)", "system": "TNF-alpha", "assay": "TNF-alpha production by THP-1 derived macrophages (ELISA)", "type": "cell-based, human", "conditions": "40 μM; LPS stimulation; FIG. 13", "protocol": "Monocytes of the THP-1 line were cultured in RPMI 1640 medium supplemented with 10% FBS and 2 mM glutamine. For transformation of monocytes into macrophages, the cells were treated with 12.5 ng/mL PMA (phorbol 12-myristate 13-acetate) for 48 hours, then washed and incubated for 24 hours in a culture medium without PMA. After this time, urolithin A, urolithin B, iso-urolithin A and the corresponding glucuronides (GUA, GUB and GiUA) were added to the cells at a concentration of 40 μM. After 1 hour of incubation with the compounds, the cells were stimulated with LPS from Escherichia coli (10 ng/mL).\nTo assess the level of TNF-alpha production, the cells were incubated for 6 hours, to assess the expression of mRNA for TNF-alpha, the cells were incubated for 24 hours, to assess the effect on ERK1/2 phosphorylation, the cells were incubated for 35 minutes.\nThe level of TNF-alpha in the culture medium was determined using the immunochemical ELISA method (BD biosciences). Evaluation of the expression of mRNA for TNF-alpha was performed using real time PCR. After 24 hours of incubation, RNA was isolated using NucleoSpin RNA Clean-up (Macherey-Nagel). The amount and quality of isolated RNA was determined using 2100 Bioanalyzer (Agilent Technologies). The expression level of mRNA for TNF-α was determined using Brilliant II SYBR Green QPCR Kit and Aria Mx Real-Time PCR thermocycler (Agilent Technologies). The following were used as primers for TNF-alpha: forward: 5′-[…]-3′, reverse: 5′-[…]-3′. Beta-actin (ACTB) was used as the housekeeping gene; primer forward: 5′-[…]-3′, reverse: 5′-[…]-3′).\nThe obtained results of experiments on in vitro models were analyzed using the Statistica 13 program (StatSoft, Inc., Tulsa, OK, USA) and presented as mean values±SEM. Statistical significance was set at P≤0.05. The results with established normal distribution in the D'Agostin and Pearson test were prepared using analysis of variance (ANOVA). Parametric post-hoc analysis was performed using Dunnett's test."}
{"smiles": "O=c1oc2cc(O)ccc2c2ccc(O)cc12", "note": "[urolithin A]", "values": [{"measurement": "TNF-alpha production by THP-1 derived macrophages", "value": "inhibition of pro-inflammatory cytokine TNF-alpha production"}]}
